Literature values as cited in patent US20080242855A1, “Process for Producing Flavone C Glycoside Derivatives” (priority 2004, published 2008).

Columns and labels:
[1] = tested on: auricular edema induced by 2,4-dinitrofluorobenzen (DNFB); settings: reported in Japanese Patent Laid-Open No. 2004-035474
peritoneal mast cells = settings: reported in Japanese Patent Laid-Open No. 2004-035474

Row | SMILES | inhibitory effect on the formation of auricular edema induced by 2,4-dinitrofluorobenzen (DNFB) [1] | inhibitory effect on histamine release from peritoneal mast cells (peritoneal mast cells)
1 | O=c1cc(-c2ccc(O)cc2)oc2cc3c(c(O)c12)[C@@H]1O[C@H](CO)[C@@H](O)[C@H](O)[C@@H]1O3 [formula (1)] | inhibitory effect | inhibitory effect
2 | O=c1cc(-c2ccc(O)cc2)oc2c3c(cc(O)c12)O[C@H]1[C@@H](O)[C@H](O)[C@@H](CO)O[C@@H]31 [formula (4)] | inhibitory effect | inhibitory effect
